These results are taken from article PMC10477886, “Adamantaniline Derivatives Target ATP5B to Inhibit Translation of Hypoxia Inducible Factor‐1α” (Advanced Science, 2023).

Data set [1] in a line: plasma concentration and pharmacokinetics after intraperitoneal administration in ICR mice. In kind it is in vivo. The settings on record: intraperitoneal 50 mg kg^−1, two mice per compound, five times. On the procedure: First, we roughly screened the concentrations in the plasma of seven selected compounds (1‐3n, 1‐3au, 1‐4a, 1‐4k, 1‐4l, 1‐4m, and 1‐4p) at indicated times after intraperitoneal administration in the Institute of Cancer Research (ICR) mice at a dose of 50 mg kg^−1 with two mice per compound, the blood at five different times was collected and the plasma concentration was analyzed finally. […] Besides, we examined the toxicity of HI‐104 in ICR mice by administering for 1 week at a dose of 100 mg kg^−1 by intraperitoneal injection.

The test system of data set [2] is HIF‐1α transcriptional activity. Put plainly: dual‐luciferase assay (HRE‐Firefly Luciferase / renilla) of HIF‐1α transcriptional activity in HEK293T cells. In kind it is cell-based, human. The conditions noted are these: mean ± s.d. (n = 3); for inhibition at 10 µM: read-out: Inhibition rate [%] @ 10 µM; for IC50: HEK293T dual‐luciferase. From the text: To screen HIF‐1α inhibitors in a robust cell‐based assay, we optimized the dual‐luciferase assay with pLenti‐HIF‐1αP2A (P402A and P564A) instead of pLenti‐HIF‐1α in order to ensure the expression of HIF‐1α under normoxia condition. In the cell‐based assay, HEK293T cells were co‐transfected with pLenti‐HIF‐1αP2A, renilla, and hypoxia‐responsive element (HRE)‐Firefly Luciferase (Figure S1, Supporting Information). […] Three compounds were selected as the positive controls including two inhibitors (PX‐478 2HCl and BAY 87‐2243) and an activator (BAY 85‐3934) in the screening assay.
HEK293T cells were stably transfected with reporter plasmids pGMLV‐HRE‐LUC‐puromycin, pMSCV‐renilla‐hygromycin, and pLenti‐HIF‐1αP2A‐neomycin. Stable cell line constructed above, 293‐HIF‐1αP2A‐HRE‐Fluc‐Rluc, were seeded in 384‐well plates and cultured in DMEM with 10% FBS. The following day, the cells were pretreated with indicated chemical compounds from the National Compound Library of the Shanghai Institute of Materia Medica, Chinese Academy of Sciences by Mosquito HTS. The plate was then placed in an incubator chamber and incubated at 37 °C for 24 h. The ratio of firefly/renilla luciferase activity was determined by using the Envision (PerkinElmer).
Stable cell line 293‐HRE‐Fluc‐Rluc expressed luciferase and renilla or HEK293T cells transfected with indicated plasmids (pGL3‐HRE‐luciferase and pSV40‐renilla) were seeded in a 96‐well plate. The cells were co‐incubated with indicated compounds for 24 h and luciferase activities were detected in Microplate Reader (BioTek SYNEGRY H1) using the Dual Luciferase Reporter Assay System Kit (Promega, USA E1910) according to the manufacturer's instruction. The relative Luc activity was normalized by renilla activity. Three independent experiments were performed, and the calculated means and SDs are presented.

The mark [3] stands for this setting: Homo sapiens, HEK-293T, 10 µM, incubation 24 h, HEK293T.

As to `O=C(Nc1ccc(C23CC4CC(CC(C4)C2)C3)cc1)c1cccc(O)c1` [1‐3n, N‐(4‐((3r,5r,7r)‐Adamantan‐1‐yl)Phenyl)−3‐Hydroxybenzamide], in data set [1], the “concentration in the plasma (rough screen)” value is “barely detectable in the plasma”. Further, in data set [2] (setting [3]), the inhibition at 10 µM is 99.7 ± 0.1%. This compound returned a 50% inhibitory concentration (IC50) in data set [2] (Homo sapiens, HEK-293T) of 26 ± 5 nM.

For the compound `Nc1cccc(C(=O)Nc2ccc(C34CC5CC(CC(C5)C3)C4)cc2)c1` [1‐3t, N‐(4‐((3r,5r,7r)‐Adamantan‐1‐yl)Phenyl)−3‐Aminobenzamide], the inhibition at 10 µM in data set [2] (setting [3]) was 97.3 ± 0.4%. In data set [2] (Homo sapiens, HEK-293T), this compound yielded an IC50 of 230 ± 30 nM.

For `Nc1ccc(C(=O)Nc2ccc(C34CC5CC(CC(C5)C3)C4)cc2)cc1` [1‐3u, N‐(4‐((3r,5r,7r)‐Adamantan‐1‐yl)Phenyl)−4‐Aminobenzamide], in data set [2] (setting [3]), the inhibition at 10 µM amounted to 98.4 ± 0.1%. Moreover, in data set [2] (Homo sapiens, HEK-293T), the midpoint of inhibition, the IC50, lay at 110 ± 10 nM.

Regarding `CC(=O)Nc1ccccc1C(=O)Nc1ccc(C23CC4CC(CC(C4)C2)C3)cc1` [1‐3v, 2‐Acetamido‐N‐(4‐((3r,5r,7r)‐Adamantan‐1‐yl)Phenyl)Benzamide], in data set [2] (setting [3]), the inhibition at 10 µM was 18.4 ± 2.2%.

With `CC(=O)Nc1cccc(C(=O)Nc2ccc(C34CC5CC(CC(C5)C3)C4)cc2)c1` [1‐3w, 3‐Acetamido‐N‐(4‐((3r,5r,7r)‐Adamantan‐1‐yl)Phenyl)Benzamide], the inhibition at 10 µM in data set [2] (setting [3]) came out at 77.4 ± 2.3%. Also, it took 1900 ± 200 nM to reach half-maximal inhibition in data set [2] (Homo sapiens, HEK-293T) (IC50).

For `CC(=O)Nc1ccc(C(=O)Nc2ccc(C34CC5CC(CC(C5)C3)C4)cc2)cc1` [1‐3x, 4‐Acetamido‐N‐(4‐((3r,5r,7r)‐Adamantan‐1‐yl)Phenyl)Benzamide], in data set [2] (setting [3]), the inhibition at 10 µM was 84.4 ± 1.9%. For the same compound, in data set [2] (Homo sapiens, HEK-293T), half-maximal inhibition (IC50) required 950 ± 110 nM.

Turning to `O=C(CCCC[C@@H]1SC[C@@H]2NC(=O)N[C@@H]21)Nc1ccc(C(=O)Nc2ccc(C34CC5CC(CC(C5)C3)C4)cc2)cc1` [1‐3y, N‐(4‐((3r,5r,7r)‐Adamantan‐1‐yl)Phenyl)−4‐(5‐((3aS,4S,6aR)−2‐Oxohexahydro‐1H‐Thieno[3,4‐d]Imidazol‐4‐yl)Pentanamido)Benzamide], in data set [2] (10 µM, incubation 24 h, HEK293T), the “Inhibition rate [%] @ 10 µM” value came out at 90.4 ± 0.8%. The compound also returned an IC50 in data set [2] of 280 ± 100 nM.

For the compound `O=C(Nc1ccc(C23CC4CC(CC(C4)C2)C3)cc1)c1cccnc1` [1‐4b, N‐(4‐((3r,5r,7r)‐Adamantan‐1‐yl)Phenyl)Nicotinamide], in data set [2] (setting [3]), the inhibition at 10 µM worked out at 75.2 ± 1.9%.

Turning to `O=C(Nc1ccc(C23CC4CC(CC(C4)C2)C3)cc1)c1ccncc1` [1‐4c, N‐(4‐((3r,5r,7r)‐Adamantan‐1‐yl)Phenyl)Isonicotinamide], the inhibition at 10 µM in data set [2] (setting [3]) came to 41.6 ± 2%.

`O=C(Nc1ccc(C23CC4CC(CC(C4)C2)C3)cc1)c1ccncn1` [1‐4d, N‐(4‐((3r,5r,7r)‐Adamantan‐1‐yl)Phenyl)Pyrimidine‐4‐Carboxamide]: the inhibition at 10 µM in data set [2] (setting [3]) amounted to 97.1 ± 0.4%. The compound also returned an IC50 in data set [2] (Homo sapiens, HEK-293T) of 280 ± 60 nM.

In the case of `Cc1cnc(C(=O)Nc2ccc(C34CC5CC(CC(C5)C3)C4)cc2)cn1` [1‐4e], in data set [2] (setting [3]), the inhibition at 10 µM came to 36.3 ± 4.2%.

Regarding `COc1ccc(C(=O)Nc2ccc(C34CC5CC(CC(C5)C3)C4)cc2)nc1` [1‐4f], the inhibition at 10 µM in data set [2] (setting [3]) came out at 36.1 ± 5.6%.

With `COc1ccnc(C(=O)Nc2ccc(C34CC5CC(CC(C5)C3)C4)cc2)c1` [1‐4g, N‐(4‐((3r,5r,7r)‐Adamantan‐1‐yl)Phenyl)−4‐Methoxypicolinamide], the inhibition at 10 µM in data set [2] (setting [3]) amounted to 68.5 ± 0.4%.

Regarding `O=C(Nc1ccc(C23CC4CC(CC(C4)C2)C3)cc1)c1cc(Cl)ccn1` [1‐4h, N‐(4‐((3r,5r,7r)‐Adamantan‐1‐yl)Phenyl)−4‐Chloropicolinamide], the inhibition at 10 µM in data set [2] (setting [3]) was 91.5 ± 1.3%. Half-maximal inhibition in data set [2] (Homo sapiens, HEK-293T) (IC50) required 720 ± 20 nM.

With `O=C(Nc1ccc(C23CC4CC(CC(C4)C2)C3)cc1)c1cncs1` [1‐4i, N‐(4‐((3r,5r,7r)‐Adamantan‐1‐yl)Phenyl)thiazole‐5‐Carboxamide], the inhibition at 10 µM in data set [2] (setting [3]) turned out to be 97.1 ± 0.4%. The compound further registered an IC50 in data set [2] (Homo sapiens, HEK-293T) of 520 ± 20 nM.

For the compound `O=C(Nc1ccc(C23CC4CC(CC(C4)C2)C3)cc1)c1cccs1` [1‐4j, N‐(4‐((3r,5r,7r)‐Adamantan‐1‐yl)Phenyl)Thiophene‐2‐Carboxamide], the inhibition at 10 µM in data set [2] (setting [3]) was 98.7 ± 0.6%. This compound also displayed a 50% inhibitory concentration (IC50) in data set [2] (Homo sapiens, HEK-293T) of 390 ± 10 nM.

With `Cn1cccc1C(=O)Nc1ccc(C23CC4CC(CC(C4)C2)C3)cc1` [1‐4n, N‐(4‐((3r,5r,7r)‐Adamantan‐1‐yl)Phenyl)−1‐Methyl‐1H‐Pyrrole‐2‐Carboxamide], the inhibition at 10 µM in data set [2] (setting [3]) stood at 57.5 ± 2%.

Consider `O=C(Nc1ccc(C23CC4CC(CC(C4)C2)C3)cc1)c1ccsc1` [1‐4o, N‐(4‐((3r,5r,7r)‐Adamantan‐1‐yl)Phenyl)Thiophene‐3‐Carboxamide], for which the inhibition at 10 µM in data set [2] (setting [3]) is 48.5 ± 8.7%.

As to `Nc1cccc(C(=O)Nc2ccc(C34CC5CC(CC(C5)C3)C4)cc2)n1` [1‐4q, N‐(4‐((3r,5r,7r)‐Adamantan‐1‐yl)Phenyl)−6‐Aminopicolinamide], the inhibition at 10 µM in data set [2] (setting [3]) was 98.6 ± 0.1%. For the same compound, 110 ± 20 nM corresponded to half-maximal inhibition in data set [2] (Homo sapiens, HEK-293T) (IC50).

`Nc1cccnc1C(=O)Nc1ccc(C23CC4CC(CC(C4)C2)C3)cc1` [1‐4r, N‐(4‐((3r,5r,7r)‐Adamantan‐1‐yl)Phenyl)−3‐Aminopicolinamide]: the inhibition at 10 µM in data set [2] (setting [3]) was determined as 97.5 ± 1%. The IC50 in data set [2] (Homo sapiens, HEK-293T) was 170 ± 20 nM.

On to `O=C(NC1C2CC3CC(C2)CC1C3)c1ccc(NC(=O)c2ccccn2)cc1` [2‐3a, N‐(4‐(((1R,3S,5r,7r)‐Adamantan‐2‐yl)Carbamoyl)Phenyl)Picolinamide], for which, in data set [2] (setting [3]), the inhibition at 10 µM stood at 78.5 ± 4.5%. Moreover, in data set [2] (Homo sapiens, HEK-293T), the IC50 came to 1500 ± 200 nM.

In the case of `O=C(CC12CC3CC(CC(C3)C1)C2)Nc1ccc(NC(=O)c2ccccn2)cc1` [2‐3b, N‐(4‐(2‐((3r,5r,7r)‐Adamantan‐1‐yl)Acetamido)Phenyl)Picolinamide], the inhibition at 10 µM in data set [2] (setting [3]) was determined as 68 ± 4.7%. The compound further came in with an IC50 in data set [2] (Homo sapiens, HEK-293T) of 3500 ± 1000 nM.

Consider `CC(NC(=O)c1ccc(NC(=O)c2ccccn2)cc1)C12CC3CC(CC(C3)C1)C2` (centres unmarked) [2‐3c, N‐(4‐((1‐((3r,5r,7r)‐Adamantan‐1‐yl)Ethyl)Carbamoyl)Phenyl)Picolinamide], for which the inhibition at 10 µM in data set [2] (setting [3]) is 79.9 ± 2%. Further, it took 2100 ± 400 nM to reach half-maximal inhibition in data set [2] (Homo sapiens, HEK-293T) (IC50).

For `Cc1cc(C23CC4CC(CC(C4)C2)C3)cc(C)c1NC(=O)c1cccc(Cl)c1` [3‐2a, N‐(4‐((3r,5r,7r)‐Adamantan‐1‐yl)−2,6‐Dimethylphenyl)−3‐Chlorobenzamide], the inhibition at 10 µM in data set [2] (setting [3]) stood at 34.8 ± 3.8%.

Consider `CC(C)c1cc(C23CC4CC(CC(C4)C2)C3)cc(C(C)C)c1NC(=O)c1cccc(Cl)c1` [3‐2b, N‐(4‐((3r,5r,7r)‐Adamantan‐1‐yl)−2,6‐Diisopropylphenyl)−3‐Chlorobenzamide], for which the inhibition at 10 µM in data set [2] (setting [3]) came out at 27 ± 4.9%.

On to `O=C(Nc1ncc(C23CC4CC(CC(C4)C2)C3)cn1)c1cccc(Cl)c1` [3‐2c, N‐(5‐((3r,5r,7r)‐Adamantan‐1‐yl)Pyrimidin‐2‐yl)−3‐Chlorobenzamide], for which the inhibition at 10 µM in data set [2] (setting [3]) amounted to 65.3 ± 4.3%.

With `CC(=O)Nc1ccc(C(=O)Nc2ccc(C34CC5CC(C)(CC(C)(C5)C3)C4)cc2)cc1` [3‐2d], the inhibition at 10 µM in data set [2] (setting [3]) was determined as 31.4 ± 4.5%.

On to `CC12CC3CC(C)(C1)CC(c1ccc(NC(=O)c4cccc(Cl)c4)cc1)(C3)C2` [3‐2e, 3‐Chloro‐N‐(4‐((1r,3R,5S,7r)−3,5‐Dimethyladamantan‐1‐yl)Phenyl)Benzamide], for which the inhibition at 10 µM in data set [2] (setting [3]) came to 27.1 ± 1%.

As for `Cc1cc(C23CC4CC(C)(CC(C)(C4)C2)C3)cc(C)c1NC(=O)c1cccc(Cl)c1` [3‐2f, 3‐Chloro‐N‐(4‐((1r,3R,5S,7r)−3,5‐Dimethyladamantan‐1‐yl)−2,6‐Dimethylphenyl)Benzamide], the inhibition at 10 µM in data set [2] (setting [3]) came out at 65.7 ± 6.7%.

Regarding `CC12CC3CC(C)(C1)CC(c1cnc(NC(=O)c4cccc(Cl)c4)nc1)(C3)C2` [3‐2g, 3‐Chloro‐N‐(5‐((1r,3R,5S,7r)−3,5‐Dimethyladamantan‐1‐yl)Pyrimidin‐2‐yl)Benzamide], the inhibition at 10 µM in data set [2] (setting [3]) came to 27.8 ± 8.8%.

In the case of `CCc1cc(C23CC4CC(C)(CC(C)(C4)C2)C3)cc(CC)c1NC(=O)c1cccc(Cl)c1` [3‐2h, 3‐Chloro‐N‐(4‐((1r,3R,5S,7r)−3,5‐Dimethyladamantan‐1‐yl)−2,6‐Diethylphenyl)Benzamide], the inhibition at 10 µM in data set [2] (setting [3]) came out at 30 ± 8.4%.

With `CCc1cc(C23CC4CC(CC(C4)C2)C3)cc(CC)c1NC(=O)c1cccc(Cl)c1` [3‐2i, N‐(4‐((3r,5r,7r)‐Adamantan‐1‐yl)−2,6‐Diethylphenyl)−3‐Chlorobenzamide], the inhibition at 10 µM in data set [2] (setting [3]) was determined as 35.1 ± 5.7%.

As to `COC(=O)c1ccc(O)c(NC(=O)COc2ccc(C34CC5CC(CC(C5)C3)C4)cc2)c1` [LW6, reference compound], the inhibition at 10 µM in data set [2] (setting [3]) amounted to 70.9 ± 3.7%. Besides, the IC50 in data set [2] (Homo sapiens, HEK-293T) was 2600 ± 500 nM.
